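96-well plates; 48 h exposure; 5 concentrations. Endpoints by linear interpolation between flanking doses. Not reached: highest tested concentration assigned. The concentration for 50% growth inhibition is given as GI50.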 Active and inactive are the calls of the source. Cut-off read from the data, not from the text of the source: active = GI50 up to about 1.1 µM and inactive = higher. A value given as a limit tells only on which side of the number the result lay.

Some test systems named below: CAKI-1; DU-145; KM12; MDA-MB-435; MDA-N; NCI-H23; PC-3; RPMI-8226; SF-268; SF-539; SK-OV-3; SN12C; SNB-19; SW-620; T47D; U-251; UO-31.
Experiment in all cases: NCI tumour cell line growth inhibition, 48 h

For `Cc1ccc(-c2cs/c(=N\c3ccccc3)n2NC(=O)c2ccncc2)cc1`, the GI50 is 26.4 µM (inactive) with CAKI-1; 56.2 µM (inactive) with DU-145; 31.4 µM (inactive) in the test on KM12; 29.4 µM (inactive) in the test with MDA-MB-435; 25.4 µM (inactive) in the test on MDA-N; 31.3 µM (inactive) in the test on NCI-H23. The GI50 was 27.4 µM (inactive) with PC-3; 22.6 µM (inactive) with RPMI-8226; 42.1 µM (inactive) in the test on SF-268; 69 µM (inactive) in the test with SF-539; 33.7 µM (inactive) with SK-OV-3; 45.2 µM (inactive) in the test with SN12C. In addition, the GI50 in the test with SNB-19 is 46.8 µM (inactive); with SW-620, 35.8 µM (inactive); in the test with T47D it was 24.5 µM (inactive); with U-251, 19.1 µM (inactive); in the test on UO-31 it was 30.6 µM (inactive).
Turning to `CCOc1ccccc1-c1nc2c(s1)C(=O)c1ccccc1C2=O`, the GI50 in the test with CAKI-1 was 12.2 µM (inactive); in the test with DU-145, 19.4 µM (inactive); in the test on KM12, 15.4 µM (inactive); with MDA-MB-435 it was 2.15 µM (inactive); with MDA-N it was 2.72 µM (inactive); in the test with NCI-H23, 10.5 µM (inactive). In addition, the GI50 was 12 µM (inactive) with PC-3; 7.26 µM (inactive) with RPMI-8226; 12.6 µM (inactive) with SF-268; 16.4 µM (inactive) in the test with SF-539; 15 µM (inactive) in the test with SK-OV-3; 18.4 µM (inactive) in the test with SN12C. For the same molecule, the GI50 with SNB-19 is 25.8 µM (inactive); with SW-620, 8 µM (inactive); in the test on T47D, 16.9 µM (inactive); with U-251 it was 14.6 µM (inactive); in the test with UO-31, 12.6 µM (inactive).
For `OCc1cc2c([nH]c3ccccc32)c(C(O)CO)n1` (configuration not stated), the GI50 with CAKI-1, with DU-145, in the test with KM12, in the test on MDA-MB-435, in the test on MDA-N and with NCI-H23 was > 100 µM (inactive) in each case. The GI50 in the test on PC-3, in the test with RPMI-8226, with SF-268, in the test with SF-539, in the test with SK-OV-3 and with SN12C was > 100 µM (inactive) throughout. Also, the GI50 with SNB-19, in the test with SW-620, with T47D, in the test on U-251 and in the test on UO-31 was > 100 µM (inactive) in each case.
For the molecule `COc1cc2c(cc1O)C1Cc3ccc(OC)c(O)c3C(C2)N1C` (configuration not stated), the GI50 in the test on CAKI-1, with DU-145, with KM12, in the test on MDA-MB-435, in the test with MDA-N and in the test on NCI-H23 was > 100 µM (inactive) each time. For the same molecule, the GI50 in the test on PC-3 is 90.8 µM (inactive); in the test on RPMI-8226 it was > 100 µM (inactive); with SF-268 it was > 100 µM (inactive); in the test with SF-539 it was > 100 µM (inactive); in the test with SK-OV-3 it was > 100 µM (inactive); in the test with SN12C, > 100 µM (inactive). For the same molecule, the GI50 in the test with SNB-19, in the test on SW-620, with T47D, in the test with U-251 and in the test on UO-31 was > 100 µM (inactive) in each case.
Regarding `CCSC1=N/C(=C/c2ccccc2O)C(=O)N1`, the GI50 was > 100 µM (inactive) in the test with CAKI-1; > 100 µM (inactive) in the test on DU-145; 51.1 µM (inactive) in the test with KM12; > 100 µM (inactive) in the test with MDA-MB-435; > 100 µM (inactive) in the test on MDA-N; > 100 µM (inactive) with NCI-H23. For the same molecule, the GI50 was > 100 µM (inactive) in the test with PC-3; > 100 µM (inactive) in the test on RPMI-8226; 83.2 µM (inactive) with SF-268; 20.7 µM (inactive) with SF-539; 31.7 µM (inactive) with SK-OV-3; 67.1 µM (inactive) in the test on SN12C. For the same molecule, the GI50 in the test with SNB-19 is > 100 µM (inactive); in the test with SW-620 it was > 100 µM (inactive); with T47D, 60.7 µM (inactive); with U-251, 38.7 µM (inactive); in the test on UO-31 it was 38.5 µM (inactive).
On to `Cn1c(=O)c2c(ncn2Cc2ccc(O)c([N+](=O)[O-])c2)n(C)c1=O`, for which the GI50 in the test with CAKI-1, in the test on DU-145, in the test on KM12, in the test on MDA-MB-435, in the test with MDA-N and with NCI-H23 was > 100 µM (inactive) in each case. For the same molecule, the GI50 in the test with PC-3, in the test on RPMI-8226, in the test with SF-268, in the test on SF-539, with SK-OV-3 and in the test with SN12C was > 100 µM (inactive) throughout. In addition, the GI50 in the test with SNB-19, in the test on SW-620, in the test on T47D, in the test on U-251 and in the test on UO-31 was > 100 µM (inactive) throughout.
Consider `COc1ccc(/C=N/N=C(\N)NO)c(OC)c1OC`, for which the GI50 in the test on CAKI-1 was 54.3 µM (inactive); in the test on DU-145 it was 12.8 µM (inactive); in the test with KM12, 4.69 µM (inactive); in the test with MDA-MB-435 it was 57.7 µM (inactive); with MDA-N, 66.5 µM (inactive); with NCI-H23, 31.3 µM (inactive). For the same molecule, the GI50 with PC-3 is 36.3 µM (inactive); in the test with RPMI-8226, 31.6 µM (inactive); with SF-268, 24.7 µM (inactive); in the test on SF-539 it was 25.2 µM (inactive); in the test with SK-OV-3, 51.4 µM (inactive); in the test on SN12C, 34.4 µM (inactive). Also, the GI50 in the test with SNB-19 was > 100 µM (inactive); in the test on SW-620, 46.2 µM (inactive); with T47D it was 28.1 µM (inactive); with U-251 it was 42.1 µM (inactive); with UO-31 it was 20.8 µM (inactive).
With `CC1CC/C(=C\c2ccc(F)cc2)C2=C1C(c1ccc(F)cc1)NC(=S)N2` (configuration not stated), the GI50 was 57.8 µM (inactive) in the test with CAKI-1; 46.8 µM (inactive) in the test with DU-145; 24.7 µM (inactive) in the test on KM12; 57.7 µM (inactive) in the test with MDA-MB-435; 67.8 µM (inactive) in the test on MDA-N; 30.7 µM (inactive) in the test on NCI-H23. Besides, the GI50 in the test on PC-3 is 30 µM (inactive); with RPMI-8226, 18.1 µM (inactive); with SF-268 it was 91.4 µM (inactive); in the test on SF-539, > 100 µM (inactive); in the test on SK-OV-3 it was > 100 µM (inactive); in the test on SN12C, 97.7 µM (inactive). The GI50 was > 100 µM (inactive) with SNB-19; 80.4 µM (inactive) in the test on SW-620; 12.9 µM (inactive) with T47D; 61.4 µM (inactive) in the test with U-251; 23.2 µM (inactive) in the test on UO-31.
As to `CCOc1ccc2nc3cc(/N=N/c4ccc(N)nc4N)ccc3c(N)c2c1`, the GI50 in the test with CAKI-1 was 36.4 µM (inactive); in the test with DU-145 it was 6.65 µM (inactive); with KM12 it was 3.37 µM (inactive); in the test on MDA-MB-435, 3.03 µM (inactive); in the test on MDA-N it was 2.24 µM (inactive); in the test with NCI-H23, 3.94 µM (inactive). Further, the GI50 in the test on PC-3 is 3.57 µM (inactive); with RPMI-8226, 20 µM (inactive); in the test with SF-268 it was 1.64 µM (inactive); in the test on SF-539, 2.05 µM (inactive); in the test with SK-OV-3, 7 µM (inactive); in the test with SN12C, 2.17 µM (inactive). The GI50 with SNB-19 was 1.67 µM (inactive); in the test with SW-620, 2.51 µM (inactive); in the test with T47D, 1.67 µM (inactive); with U-251 it was 0.578 µM (active); in the test with UO-31 it was 28.4 µM (inactive).
Regarding `CC(C)C1=CCC2C(=C1)CCC1C(C)(C(=O)O)CCCC21C` (configuration not stated), the GI50 in the test on CAKI-1 was > 100 µM (inactive); in the test on DU-145, > 100 µM (inactive); in the test with KM12, 92.3 µM (inactive); with MDA-MB-435, > 100 µM (inactive); with MDA-N, > 100 µM (inactive); with NCI-H23, 81.1 µM (inactive). For the same molecule, the GI50 is > 100 µM (inactive) in the test with PC-3; 19.9 µM (inactive) with RPMI-8226; > 100 µM (inactive) in the test with SF-268; > 100 µM (inactive) in the test on SF-539; > 100 µM (inactive) in the test on SK-OV-3; > 100 µM (inactive) with SN12C. Moreover, the GI50 was > 100 µM (inactive) in the test with SW-620, > 100 µM (inactive) with T47D, > 100 µM (inactive) in the test on U-251 and 79.1 µM (inactive) in the test on UO-31.
For the molecule `O=[N+]([O-])C(=C(NCc1ccccc1)NCc1ccccc1)C(Cl)=C(Cl)Cl`, the GI50 is 10.7 µM (inactive) in the test with CAKI-1; 69.3 µM (inactive) in the test on DU-145; 20.3 µM (inactive) in the test with KM12; 22.9 µM (inactive) with MDA-MB-435; 25.2 µM (inactive) in the test with MDA-N; 38.4 µM (inactive) with NCI-H23. Also, the GI50 in the test on PC-3 is 32.1 µM (inactive); with RPMI-8226 it was 29.9 µM (inactive); in the test on SF-268, 20.8 µM (inactive); in the test with SF-539, 43 µM (inactive); with SK-OV-3, 51.1 µM (inactive); in the test with SN12C it was 34.9 µM (inactive). Besides, the GI50 in the test with SNB-19 was 28.2 µM (inactive); with SW-620, 36.9 µM (inactive); in the test on T47D it was 27.3 µM (inactive); with UO-31 it was 25.3 µM (inactive).
As for `Cc1ccc2c(O)cc(-c3ccc(Cl)cc3)nc2n1`, the GI50 is 5.57 µM (inactive) with CAKI-1; 6.05 µM (inactive) in the test with DU-145; 4.57 µM (inactive) in the test on KM12; 1.32 µM (inactive) in the test with MDA-MB-435; 1.56 µM (inactive) with MDA-N; 27.2 µM (inactive) with NCI-H23. Besides, the GI50 with PC-3 was 2.96 µM (inactive); in the test with RPMI-8226, 1.87 µM (inactive); in the test on SF-268, 27 µM (inactive); in the test on SF-539 it was 5.16 µM (inactive); in the test with SK-OV-3, 6.64 µM (inactive); in the test with SN12C, 4.38 µM (inactive). The GI50 is 6.97 µM (inactive) with SNB-19; 5.08 µM (inactive) in the test with SW-620; 0.764 µM (active) with T47D; 5.47 µM (inactive) in the test on U-251; 14.3 µM (inactive) with UO-31.

Source of the values: ChEMBL document CHEMBL1201862, “PubChem BioAssay data set” (2004).
